Assay results: patent US9108950B2, “1-pyrazolyl-3-(4-((2-anilinopyrimidin-4-yl)oxy)napththalen-1-yl) ureas as p38 MAP kinase inhibitors” (Respivert Ltd., priority 2011, dated 2015)

Tests used:
Cigarette Smoke Model = experiment: Cigarette smoke model; type: in vivo, A/J mice; settings: 1.75 μg/mouse (35 μL, bid, i.n.)
Description: A/J mice (males, 5 weeks old) were exposed to cigarette smoke (4% cigarette smoke, diluted with air) for 30 min/day for 11 days using a Tobacco Smoke Inhalation Experiment System for small animals (Model SIS-CS; Sibata Scientific Technology, Tokyo, Japan). […] At 12 hr after the last dosing, each of the animals was anesthetized, the trachea cannulated and bronchoalveolar lavage fluid (BALF) was collected. The numbers of alveolar macrophages and neutrophils were determined by FACS analysis (EPICS® ALTRA II, Beckman Coulter, Inc., Fullerton, Calif., USA) using anti-mouse MOMA2 antibody (macrophage) or anti-mouse 7/4 antibody (neutrophil). BALF was centrifuged and the supernatant was collected. The level of keratinocyte chemoattractant (KC; CXCL1) in BALF was quantitated using a Quentikine® mouse KC ELISA kit (R&D systems, Inc., Minneapolis, Minn., USA).

[1] = tested on: LPS-induced neutrophil accumulation; experiment: LPS-induced neutrophil accumulation in mice; type: in vivo, Balb/c mice; settings: 1.75 μg/mouse
Description: […] At T=0, mice were placed into an exposure chamber and exposed to LPS (7.0 mL, 0.5 mg/mL solution in PBS) for 30 min). After a further 8 hr the animals were anesthetized, their tracheas cannulated and BALF extracted by infusing and then withdrawing from their lungs 1.0 mL of PBS via the tracheal catheter. Total and differential white cell counts in the BALF samples were measured using a Neubaur haemocytometer. Cytospin smears of the BALF samples were prepared by centrifugation at 200 rpm for 5 min at RT and stained using a DiffQuik stain system (Dade Behring). Cells were counted using oil immersion microscopy. Data for neutrophil numbers in BAL are shown as mean±S.E.M. (standard error of the mean). The percentage inhibition of neutrophil accumulation was calculated for each treatment relative to vehicle treatment.

[2] = tested on: Differentiated U937 cells; experiment: Cell viability: MTT assay; type: cell-based, human; settings: 1 μg/mL
Description: Differentiated U937 cells were pre-incubated with each test compound (final concentration 1 μg/mL or 10 μg/mL in 200 μL media indicated below) under two protocols: the first for 4 hr in 5% FCS RPMI1640 media and the second in 10% FCS RPMI1640 media for 24 h. The supernatant was replaced with new media (200 μL) and MTT stock solution (10 μL, 5 mg/mL) was added to each well. After incubation for 1 hr the media were removed, DMSO (200 μL) was added to each well and the plates were shaken lightly for 1 hr prior to reading the absorbance at 550 nm. The percentage loss of cell viability was calculated for each well relative to vehicle (0.5% DMSO) treatment. Consequently an apparent increase in cell viability for drug treatment relative to vehicle is tabulated as a negative percentage.

Structure (SMILES)	macrophage accumulation into airways (Cigarette Smoke Model)	neutrophil accumulation into airways (Cigarette Smoke Model)	inhibition of LPS-induced neutrophil accumulation [1] [%]	MTT Assay Cell viability in d-U937 Cells ([2]; 4 h)	MTT Assay Cell viability in d-U937 Cells ([2]; 24 h)
CCC(=O)O[C@]1(C(=O)SCF)[C@H](C)C[C@H]2[C@@H]3C[C@H](F)C4=CC(=O)C=C[C@]4(C)[C@@]3(F)[C@@H](O)C[C@@]21C [Fluticasone Propionate, fluticasone propionate, reference compound]	did not inhibit	did not inhibit	> 80		
COCC(=O)Nc1cc(Oc2ccc(NC(=O)Nc3cc(C(C)(C)C)nn3-c3ccc(C)cc3)c3ccccc23)ccn1 [Reference Compound, N-(4-(4-(3-(3-tert-butyl-1-p-tolyl-1H-pyrazol-5-yl)ureido)naphthalen-1-yloxy)pyridin-2-yl)-2-methoxyacetamide, reference compound]				−ve (−ve and +ve indicate the value is below and above respectively, the no significant effect threshold defined as 30% inhibition at 1 μg/mL at the time point indicated.)	+ve (−ve and +ve indicate the value is below and above respectively, the no significant effect threshold defined as 30% inhibition at 1 μg/mL at the time point indicated.)
